assay: recombinant UMI read abundance after kanamycin selection (control-corrected) (log10(CPM+1)); higher = more efficient recombination; extreme values may be limits of the assay; sequences stand for … in AGTGCAGAGAAAATCGGCCAGTTTTCTCTGCCTGCAGTCCGCATGCCGTGGGACCCCTTGGGTTCTAACCTGTTGCCTAGATTTATGCAGCGGACTGCCTTTCTCCCAAAGTGATAAACCGG…AGGTTGGTTTCACT; site = the 11-nt donor
Method in brief: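 For the IS621 bridge recombinase, a pooled Escherichia coli screen tested donor and donor-binding-loop pairs. Cells received the pair library together with a target plasmid encoding a fixed target and T7-inducible recombinase, then went onto IPTG (0.07 mM) plus kanamycin or unselected plates in duplicate. After PCR across the donor–target junction and sequencing, recombinant UMI counts were normalized to CPM, averaged, and scaled by control-derived factors. Each value is given as log10(CPM+1).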
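Note: IS621 bridge recombinase in Escherichia coli cells against a fixed T5 target plasmid.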

Question: For “AGCCCTTCATGGACCGGTTTTCCCGGTAATCCGTATTTGAC (site AGCCCTTCTGT)”, which “recombinant UMI read abundance (log10)” value is on record?
Answer: 2.11

Question: For “AGCCCTTCATGGACCGGTTTTCCCGGTAATCCGTATTTGAC (site AGCCGTTCTGT)”, which “recombinant UMI read abundance (log10)” value is on record?
Answer: 0

Question: Which “recombinant UMI read abundance (log10)” value does the source give for “AGCCCTTCATGGACCGGTTTTCCCGGTAATCCGTATTTGAC (site AGCCTTTCTGT)” here?
Answer: 0.00743

Question: With “AGCCTAGCATGGACCGGTTTTCCCGGTAATCCGTATTTGGT (site AGCCTAGCTAA)” as the sequence, how does the “recombinant UMI read abundance (log10)” value read?
Answer: 0.168

Question: For “AGCCTAGCATGGACCGGTTTTCCCGGTAATCCGTATTTGGT (site AGCCTAGCTAC)”, which “recombinant UMI read abundance (log10)” value is on record?
Answer: 0

Question: Which “recombinant UMI read abundance (log10)” value does the source give for “AGCCTAGCATGGACCGGTTTTCCCGGTAATCCGTATTTGGT (site AGCCTAGCTAG)” here?
Answer: 0.00404

Question: Which “recombinant UMI read abundance (log10)” value does the source give for “AGCCTAGCATGGACCGGTTTTCCCGGTAATCCGTATTTGGT (site AGCCTAGCTAT)” here?
Answer: 0.00284

Question: For “AGCCTGGCATGGACCGGTTTTCCCGGTAATCCGTATTTGTT (site AGCCTAGCTAA)”, which “recombinant UMI read abundance (log10)” value is on record?
Answer: 0

Question: With “AGCCTGGCATGGACCGGTTTTCCCGGTAATCCGTATTTGTT (site AGCCTCGCTAA)” as the sequence, how does the “recombinant UMI read abundance (log10)” value read?
Answer: 0.0194

Question: With “AGCCTGGCATGGACCGGTTTTCCCGGTAATCCGTATTTGTT (site AGCCTGGCTAA)” as the sequence, how does the “recombinant UMI read abundance (log10)” value read?
Answer: 0.0154

Question: Which “recombinant UMI read abundance (log10)” value does the source give for “AGCCTGGCATGGACCGGTTTTCCCGGTAATCCGTATTTGTT (site AGCCTTGCTAA)” here?
Answer: 0.0159

Question: For “AGCCTGTCATGGACCGGTTTTCCCGGTAATCCGTATTTGAC (site AGCCTATCTGT)”, which “recombinant UMI read abundance (log10)” value is on record?
Answer: 0

Question: Which “recombinant UMI read abundance (log10)” value does the source give for “AGCCTGTCATGGACCGGTTTTCCCGGTAATCCGTATTTGAC (site AGCCTCTCTGT)” here?
Answer: 0

Question: For “AGCCTGTCATGGACCGGTTTTCCCGGTAATCCGTATTTGAC (site AGCCTGTCTGT)”, which “recombinant UMI read abundance (log10)” value is on record?
Answer: 0

Question: With “AGCCTGTCATGGACCGGTTTTCCCGGTAATCCGTATTTGAC (site AGCCTTTCTGT)” as the sequence, how does the “recombinant UMI read abundance (log10)” value read?
Answer: 0

Question: Which “recombinant UMI read abundance (log10)” value does the source give for “AGCCTTCCATGGACCGGTTTTCCCGGTAATCCGTATTTGAC (site AGCCTTACTGT)” here?
Answer: 0

Question: For “AGCCTTCCATGGACCGGTTTTCCCGGTAATCCGTATTTGAC (site AGCCTTCCTGT)”, which “recombinant UMI read abundance (log10)” value is on record?
Answer: 0

Question: With “AGCCTTCCATGGACCGGTTTTCCCGGTAATCCGTATTTGAC (site AGCCTTGCTGT)” as the sequence, how does the “recombinant UMI read abundance (log10)” value read?
Answer: 0

Question: With “AGCCTTCCATGGACCGGTTTTCCCGGTAATCCGTATTTGAC (site AGCCTTTCTGT)” as the sequence, how does the “recombinant UMI read abundance (log10)” value read?
Answer: 0

Question: For “AGCCTTGCATGGACCGGTTTTCCCGGTAATCCGTATTTGTT (site AGCCTAGCTAA)”, which “recombinant UMI read abundance (log10)” value is on record?
Answer: 0.00391

Question: With “AGCCTTGCATGGACCGGTTTTCCCGGTAATCCGTATTTGTT (site AGCCTCGCTAA)” as the sequence, how does the “recombinant UMI read abundance (log10)” value read?
Answer: 0.0115

Question: For “AGCCTTGCATGGACCGGTTTTCCCGGTAATCCGTATTTGTT (site AGCCTGGCTAA)”, which “recombinant UMI read abundance (log10)” value is on record?
Answer: 0.0183

Question: For “AGCCTTGCATGGACCGGTTTTCCCGGTAATCCGTATTTGTT (site AGCCTTGCTAA)”, which “recombinant UMI read abundance (log10)” value is on record?
Answer: 0

Question: With “AGCCTTTCATGGACCGGTTTTCCCGGTAATCCGTATTTGAG (site AGCCTTTCTAT)” as the sequence, how does the “recombinant UMI read abundance (log10)” value read?
Answer: 0

Question: For “AGCCTTTCATGGACCGGTTTTCCCGGTAATCCGTATTTGAG (site AGCCTTTCTCT)”, which “recombinant UMI read abundance (log10)” value is on record?
Answer: 0

Question: Which “recombinant UMI read abundance (log10)” value does the source give for “AGCCTTTCATGGACCGGTTTTCCCGGTAATCCGTATTTGAG (site AGCCTTTCTGT)” here?
Answer: 0

Question: For “AGCCTTTCATGGACCGGTTTTCCCGGTAATCCGTATTTGAG (site AGCCTTTCTTT)”, which “recombinant UMI read abundance (log10)” value is on record?
Answer: 0.007

Question: With “AGCGATACATGGACCGGTTTTCCCGGTAATCCGTATTTGAA (site AGCGATACTTT)” as the sequence, how does the “recombinant UMI read abundance (log10)” value read?
Answer: 1.65

Question: Which “recombinant UMI read abundance (log10)” value does the source give for “AGCGTAACATGGACCGGTTTTCCCGGTAATCCGTATTTGAC (site AGCGTAACTGT)” here?
Answer: 2.86

Question: Which “recombinant UMI read abundance (log10)” value does the source give for “AGCGTAGCATGGACCGGTTTTCCCGGTAATCCGTATTTGCA (site AGCGTAGCTTG)” here?
Answer: 2.87

Question: With “AGCGTAGCATGGACCGGTTTTCCCGGTAATCCGTATTTGTT (site AGCATAGCTAA)” as the sequence, how does the “recombinant UMI read abundance (log10)” value read?
Answer: 0.838

Question: Which “recombinant UMI read abundance (log10)” value does the source give for “AGCGTAGCATGGACCGGTTTTCCCGGTAATCCGTATTTGTT (site AGCCTAGCTAA)” here?
Answer: 0.0274

Question: Which “recombinant UMI read abundance (log10)” value does the source give for “AGCGTAGCATGGACCGGTTTTCCCGGTAATCCGTATTTGTT (site AGCGTAGCTAA)” here?
Answer: 1.33

Question: Which “recombinant UMI read abundance (log10)” value does the source give for “AGCGTAGCATGGACCGGTTTTCCCGGTAATCCGTATTTGTT (site AGCTTAGCTAA)” here?
Answer: 0.00472

Question: With “AGCGTGACATGGACCGGTTTTCCCGGTAATCCGTATTTGCC (site AGCGTGACTGG)” as the sequence, how does the “recombinant UMI read abundance (log10)” value read?
Answer: 1.78

Question: With “AGCGTTACATGGACCGGTTTTCCCGGTAATCCGTATTTGTA (site AGCGTTACTTA)” as the sequence, how does the “recombinant UMI read abundance (log10)” value read?
Answer: 0.651

Question: Which “recombinant UMI read abundance (log10)” value does the source give for “AGCTCAACATGGACCGGTTTTCCCGGTAATCCGTATTTGGG (site AGCTCAACTCC)” here?
Answer: 0

Source: the supplement of paper PMC11208160
